Laboratory results as given in paper PMC4750079, “Tackling amyloidogenesis in Alzheimer’s disease with A2V variants of Amyloid-β” (Scientific Reports, 2016).
Where a SMILES comes first, the peptide text is derived from it. [ ]: non-standard residue; d: D form.

Key:
Aβ1-42WT [1] = target: T1, Aβ1-42WT (Homo sapiens, UniProt P05067); assay: CD spectroscopy of Aβ1-42WT secondary structure; assay type: biochemical; settings: data not shown
T1 construct: Aβ1-42WT oligomers were formed following incubation of Aβ1-42WT at a final concentration of 100 μM; made in house; host or cells: chemical synthesis (solid-phase Fmoc), no expression host

Aβ1-42WT [2] = target: T1, Aβ1-42WT; assay: Polarized light and electron microscopy of Aβ1-42WT aggregates; assay type: biochemical; settings: 20 days incubation, 37 °C, molar ratio 1:1 or 1:4
Protocol: Figure 3 Inhibition of aggregation of Aβ1-42WT by Aβ1-6A2VTAT(D). Polarized-light (A,B), electron microscopy (C,D) and atomic force microscopy (AFM) (E–H) studies showing the inhibitory effects of Aβ1-6A2VTAT(D) on amyloid formation, fibril production and oligomerization by Aβ1-42WT. In polarized-light and EM studies, both peptides were used at 0.125 mM, molar ratio = 1:1 or 1:4 respectively, with 20 days incubation. […] E,F: Representative Tapping mode of AFM images as determined by amplitude error data of Aβ1-42WT oligomers. Aβ1-42WT peptide 100 μM in phosphate buffer 50 mM, pH 7.4 was incubated at 4 °C for 24 h alone (E) (Z range: -10/ + 10 mV) or in presence of Aβ1-6A2VTAT(D) (F) (Z range: -10/ + 25 mV). The molar ratio of Aβ1-42WT to Aβ1-6A2VTAT(D) was 1:4. Scale bar: 1 μm, inset: 200 nm. (G,H): height plot profiles obtained along different lines traced on the topographic AFM images.
Aβ1-42WT, Aβ1-6A2VTAT(D) were dissolved in 10 mM NaOH and then diluted in an equal volume of 100 mM Tris-HCl, pH 7.0, to final concentrations (0.250 mM). […] The samples were incubated at 37 °C, and the tinctorial and ultrastructural properties of the peptide assemblies were determined at various intervals, ranging from 1 h to 20 days, as previously described. […]

APPswe/PS1dE9 mice = assay: Treatment of APPswe/PS1dE9 mice; assay type: in vivo, mouse; settings: for amyloid burden (plaque count, area fraction): 4G8 immunohistochemistry
From the text: Heterozygous four-month-old female APPswe/PS1dE9 transgenic mice were used in this study. These mice express human APP carrying the Swedish mutation together with human presenilin 1 (PS1) carrying the pathogenic dE9 mutation. Animals were divided in 2 experimental groups (n = 10 each), treated i.p. once a week with saline solution or Aβ1-6A2VTAT(D) and culled 2.5 (intermediate time) and 5 months (final time) after treatment. In both mouse transgenic lines, the brain was removed and dissected into 2 hemibrains by midsagittal dissection. One half was immediately stored at […] for biochemical assays, the other immediately immersed in formalin (10%) overnight for immunohistochemical studies.
The Novel Object Recognition test (NOR) was used to examine the cognitive performance of animal models involved in preclinical studies, following well consolidated protocols. The results of the NOR were expressed by using:
- Discrimination index (time exploring novel object - time exploring familiar object)/(time exploring novel object + time exploring familiar object).
- Recognition index (RI): time exploring novel object/(time exploring novel object + time exploring familiar object) %.
The left hemisphere of each brain was homogenized in 7 volumes of 10 mM Tris-HCl, pH 7.4, added with cOmplete Mini Protease Inhibitors cocktail (Roche), sonicated for 1 min using an ultrasonic homogenizer (SONOPULS) and centrifuged at 100,000 xg for 1 h at 4 °C. The supernatant was saved as the soluble fraction; the pellet was extracted in 70% formic acid and neutralized with 20 volumes of 1 M Tris (insoluble fraction).
Aβ40, Aβ42 and aggregated Aβ were measured in both soluble and insoluble fractions by ELISA (Invitrogen). Each experiment was performed in triplicate. The analysis of APP processing followed the protocol described above. After centrifugation, the supernatant was collected as the SDS-soluble fraction, which was analyzed by western blot with the A8717 antibody (Sigma). Signal intensity of the bands was measured by Quantity One (BioRad).
Coronal slices of the right hemibrain were embedded in paraffin and cut (7μm); sections were de-waxed in xylene and hydrated through serial alcohols to water. After formic acid (80%) pre-treatment, sections were incubated overnight with anti-Aβ antibody (4G8, 1:4000; Covance). The primary antibody signal was detected with a biotinylated secondary antibody followed by horseradish streptavidin peroxidase and visualized with DAB. Amyloid deposition was quantified in mouse brain using Aβ immunostaining (4G8) and the staining intensity was evaluated semiquantitatively using a scale range from 0 to 5 by light microscopy. The assessment was conducted in two adjacent sections of the same brain area[49]. A parallel quantification of the Aβ plaque load was performed using image analysis software (NIS-elements-Nikon)[50][51][52].

[3] = Brain levels after intraperitoneal administration (HPLC-MS/MS); assay type: in vivo; settings: mice
Protocol: APP23 mice (Harlan, Correzzana, Italy) were treated by intraperitoneal injection with Aβ1-6A2VTAT(D) (10 mg/kg) or vehicle (saline solution) and sacrificed 1 h or 24 h after the last treatment. Aβ1-6A2VTAT(D) was quantified in mouse brain using HPLC-MS/MS[45]. The stability of Aβ1-6A2VTAT(D) to protease digestion was also investigated by MALDI TOF MS (See Supplementary Information for details).
To verify Aβ1-6A2VTAT(D) distribution in vivo, and particularly its bioavailability in the brain, we determined Aβ1-6A2VTAT(D) levels in mice brains after i.p. injection at a dose of 10 mg/kg. Mice were sacrificed at two intervals (1 h, 24 h). Aβ1-6A2VTAT(D) was then quantified in mouse brain using HPLC-MS/MS.
The quantitative levels of Aβ1-6A2VTAT(D) in the brain were determined by following a previously described procedure ^4.
Supplementary Figure 4S Aβ1-6A2VTAT(D) levels in mouse brain (n=4). Data are reported as mean ± SEM of peptide/mg tissue. Animals were treated i.p. at a dose of 10 mg/kg. Animals were sacrificed 1 h or 24 h after last administration following 21 […] treatments (*p < 0.05 T1-1h vs T1-24h and Student’s t-test).

[4] = i.p. 10 mg/kg once a week for 2.5 months, vs saline, ELISA
[5] = i.p. 10 mg/kg once a week for 5 months, vs saline

T1 sequence (P05067 672-713 limits assumed): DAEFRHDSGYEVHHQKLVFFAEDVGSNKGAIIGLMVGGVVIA

CC(C)[C@@H](NC(=O)[C@H](N)CC(=O)O)C(=O)N[C@H](CCC(=O)O)C(=O)N[C@H](Cc1ccccc1)C(=O)N[C@H](CCCNC(=N)N)C(=O)N[C@H](Cc1c[nH]cn1)C(=O)NCC(=O)NCC(=O)NCC(=O)NCC(=O)NCC(=O)N[C@H](CCCNC(=N)N)C(=O)N[C@H](CCCCN)C(=O)N[C@H](CCCCN)C(=O)N[C@H](CCCNC(=N)N)C(=O)N[C@H](CCCNC(=N)N)C(=O)N[C@H](CCC(N)=O)C(=O)N[C@H](CCCNC(=N)N)C(=O)N[C@H](CCCNC(=N)N)C(=O)N[C@H](CCCNC(=N)N)C(=O)O [Aβ1-6A2VTAT(D)] (H-[dD][dV][dE][dF][dR][dH]GGGGG[dR][dK][dK][dR][dR][dQ][dR][dR][dR]-OH; N-terminus assumed)
acquisition of β-sheet conformation by Aβ1-42WT (Aβ1-42WT [1]): inhibits the acquisition of β-sheet conformation by Aβ1-42WT
amount of fibrils generated by Aβ1-42WT (electron microscopy) (Aβ1-42WT [2]): reduces the amount of fibrils generated by the full-length peptide
formation of amyloid structures by Aβ1-42WT (polarized light) (Aβ1-42WT [2]): hinders the formation of amyloid structures
effects on APP processing (C99:C83 ratio), short-term (APPswe/PS1dE9 mice; after 2.5 months of treatment, western blot): not observed after short-term treatment schedules
side effect on brain (neuropathologic studies) (APPswe/PS1dE9 mice; chronic treatment, data not shown): did not result in any evident side effect on brain
Novel Object Recognition test scores (APPswe/PS1dE9 mice; i.p. 10 mg/kg once a week for 2.5 months): small, albeit not statistically significant, improvement
amyloid burden (plaque count, area fraction) (APPswe/PS1dE9 mice; i.p. 10 mg/kg once a week for 2.5 months, vs saline): reduction of amyloid burden
brain Aβ40 (APPswe/PS1dE9 mice; [4]): not changed compared to controls
brain Aβ42 in the insoluble fraction (APPswe/PS1dE9 mice; [4]): concomitant decrease in the insoluble fraction
brain Aβ42 in the soluble fraction (APPswe/PS1dE9 mice; [4]): increase of Aβ42 in the soluble fraction
brain aggregated Aβ, soluble and insoluble fraction (APPswe/PS1dE9 mice; [4]): reduced in both the compartments
Novel Object Recognition test, recognition and discrimination indexes (APPswe/PS1dE9 mice; [5]): preserved cognitive function
amyloid burden (plaque count, area fraction) (APPswe/PS1dE9 mice; [5]): unexpectedly increased
brain Aβ levels (Aβ40, Aβ42, aggregated Aβ) (APPswe/PS1dE9 mice; i.p. 10 mg/kg once a week for 5 months, vs saline, ELISA): no significant difference compared to mice treated with saline solution
C99:C83 ratio in brain (APP processing) (APPswe/PS1dE9 mice; i.p. every 7 days for 5 months, western blot densitometry): increase in the C99:C83 ratio
tissue level at time at 1 h ([3]; APP23, mouse, brain, ip, i.p. 10 mg/kg once a week for five months (21 weekly treatments), 1 h, HPLC-MS/MS, mean ± SEM, n=4, read-out: brain levels 1 h after last treatment): 145 ± 38.3 ng/g
tissue level at time at 24 h ([3]; APP23, mouse, brain, ip, i.p. 10 mg/kg once a week for five months (21 weekly treatments), 24 h, HPLC-MS/MS, mean ± SEM, n=4, read-out: brain levels 24 h after last treatment): 62 ± 28.7 ng/g
ability to cross the BBB ([3]; i.p. administration): able to cross the BBB
